The subject of data set [1] is calf thymus topoisomerase II. The data set can be described thus: Topo II cleavage assay (plasmid YEpG DNA). It is filed as biochemical. The note with it: concentration relative to VM-26 = 1 producing the same cleavage on the plasmid DNA. The text has this: The plasmid pET11a and the E. coli strain BL21(DE3) used for enzyme expression were purchased from Novagen. IPTG was purchased from Sigma. The ECL system used for the Western blotting analysis of bacterial lysates was from Amersham (UK). All the restriction enzymes and Vent polymerase were from New England Biolabs. Mammalian topoisomerase II was isolated from calf thymus glands according to the published procedure (Halligan et al., J. Biol. Chem. 260:2475-2482 (1985)). The single copy yeast plasmids YCpGAL1 expressing various topoisomerase I genes in JN2-134 yeast strain were a kind gift of Dr. M-A. Bjornsti (Thomas Jefferson University, Philadelphia, PA). All bacterial and yeast media were from Difco (Detroit, MI), while cell culture media were purchased from Gibco-BRL (Gaithersburg, MD).
(§1) Cleavage assays for the recombinant topoisomerases I and calf thymus topoisomerases I and II were done as described (Liu et al., J. Biol. Chem. 258:15365-15370 (1983)). The plasmid YEpG DNA used for the cleavage assays was prepared and labeled at its 3'-end using the published procedures.

For another data set, the target named is T1, human topoisomerase I (Homo sapiens, UniProt P11387).
T1 construct: 15 amino acid vector-derived fusion (pET-11a leader); made in house; host or cells: E. coli BL21(DE3)
T1 sequence (P11387 1-765): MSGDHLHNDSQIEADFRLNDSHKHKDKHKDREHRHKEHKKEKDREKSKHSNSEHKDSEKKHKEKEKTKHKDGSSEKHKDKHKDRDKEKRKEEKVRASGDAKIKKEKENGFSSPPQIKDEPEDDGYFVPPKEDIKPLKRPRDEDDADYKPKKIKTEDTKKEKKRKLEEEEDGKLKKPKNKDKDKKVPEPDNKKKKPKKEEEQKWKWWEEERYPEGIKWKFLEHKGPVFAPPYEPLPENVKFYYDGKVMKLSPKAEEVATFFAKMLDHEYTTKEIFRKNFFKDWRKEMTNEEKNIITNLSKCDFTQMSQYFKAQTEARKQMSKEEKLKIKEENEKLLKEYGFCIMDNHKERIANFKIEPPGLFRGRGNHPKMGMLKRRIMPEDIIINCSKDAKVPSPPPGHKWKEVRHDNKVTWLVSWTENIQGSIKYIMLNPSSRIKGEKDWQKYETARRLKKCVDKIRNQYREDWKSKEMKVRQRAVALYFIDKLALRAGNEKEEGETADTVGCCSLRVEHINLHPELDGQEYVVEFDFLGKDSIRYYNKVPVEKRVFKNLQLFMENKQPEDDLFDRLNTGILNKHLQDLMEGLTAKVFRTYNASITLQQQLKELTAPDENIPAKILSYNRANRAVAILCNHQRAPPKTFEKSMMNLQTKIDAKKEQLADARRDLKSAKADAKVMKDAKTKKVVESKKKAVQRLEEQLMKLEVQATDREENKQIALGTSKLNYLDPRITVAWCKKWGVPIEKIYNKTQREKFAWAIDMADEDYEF
The data set can be described thus: Topo I cleavage assay (plasmid YEpG DNA). It is filed as biochemical. The note with it: for Topo I-mediated DNA cleavage (REC, Relative Effective Concentration): concentration relative to camptothecin (CPT) = 1 producing the same cleavage on the plasmid DNA.
Text: To obtain large quantity of human topoisomerase I, the human topoisomerase I cDNA was cloned into the pET-11a vector, in which transcription of the cDNA is under the control of the inducible T7 promoter (Studier et al., Methods in Enzymol., Vol. 185:60-89, San Diego: Academic Press (1990)). Briefly, a 3.4 kb DNA fragment containing the entire coding sequence of human topoisomerase I and approximately 1 kb of untranslated region downstream of the stop codon was isolated from the plasmid YCpGAL1-hTOP1 (Bjornsti et al., Cancer Res. 49:6318-6323 (1989)) by cutting at the BamHI and EcoRI sites. The vector pET-11a was cut with the same restriction enzymes, dephosphorylated and ligated to the insert in the proper reading-frame downstream of the vector cloning site. The ligation mixture was used to transform E. coli, the correct clone pET1B was isolated (see figure 2A for the map) and its identity confirmed by restriction mapping. Since the translational start in pET is positioned at an upstream NdeI site, the expressed topoisomerase I has a 15 amino acid fusion at its N-terminus. pET1B was then transformed into E. coli BL21(DE3), and, upon induction with 0.4 mM IPTG for 1 hour, the bacterial lysate was analyzed by 10 % SDS-PAGE. Expression was confirmed by Western blotting using rabbit antibodies against human topoisomerase I. Isolation of the expressed protein was done by a simple procedure. Briefly, E. coli cells were lysed by repeated sonic bursts. The sonic extract was made in 1 M NaCl and 6% polyethylene glycol (PEG) to remove nucleic acids. The PEG supernatant was chromatographed directly on a hydroxyapatite column. Expressed human DNA topoisomerase I was eluted at the 0.6 M potassium phosphate step. The eluted enzyme was dialyzed against 50% glycerol, 30 mM potassium phosphate (pH 7.0), 1 mM dithiothreitol (DTT) and 0.1 mM EDTA and stored at -20°C.
as §1

Data set [2] deals with camptothecin-resistant CPT-K5 cells. The data set can be described thus: MTT-microtiter plate tetrazolinium cytotoxicity assay (MTA), camptothecin-resistant cells. On the procedure: The IC50 of the drugs tested were determined by the MTT-microtiter plate tetrazolinium cytotoxicity assay (MTA) (Mosmann, T., J. Immunol. Methods 65:55-63 (1983); Denizot et al., J. Immunol. Methods 89:271-277 (1986)). Human lymphoblast RPMI 8402 cells and their camptothecin-resistant CPT-K5 cells (Andoh et al., Proc. Natl. Acad. Sci., USA 84:5565-5569 (1987)) were kindly provided by Dr. Toshiwo Andoh (Aichi Cancer Center Research Institute, Nagoya, Japan). […] Cells (2000 cells/well, seeded in […] growth medium) were grown in suspension at 37°C in 5% CO2 and maintained by regular passage in RPMI medium supplemented with 10% heat inactivated fetal bovine serum, L-glutamine (2 mM), penicillin (100 U/ml), and streptomycin (0.1 mg/ml). The cells were exposed continuously for 4 days to different drug concentrations, and assayed at the end of the fourth day. Each concentration and the no drug control were repeated at least twice in 6 replica wells. The results were plotted and the IC50 then measured. The drug sensitive human epidermoid carcinoma KB 3-1 cell line and its vinblastine-selected multidrug-resistant variant KB-V1 cells (Akiyama et al., Genetics 11:117-126 (1985)) were kindly provided by Dr. Michael Gottesmann (National Cancer Institute). They were grown as monolayer cultures at 37°C in 5% CO2 and maintained by regular passage in Dulbecco's minimal essential medium supplemented with 10% heat inactivated fetal bovine serum. KB-V1 cells were maintained in the presence of […] vinblastine.

Data set [3] deals with Human lymphoblast RPMI 8402 cells. The data set can be described thus: MTT-microtiter plate tetrazolinium cytotoxicity assay (MTA). It is filed as cell-based. From the text: The results were plotted and the IC50 then measured.
Where [4] appears, read: Homo sapiens, CPT-K5, 96 h, read-out: Cytotoxicity IC50 CPT-K5.
The mark [5] stands for this setting: Homo sapiens, RPMI 8402, 96 h, read-out: Cytotoxicity IC50 RPMI.

Values joined by “and” are separate entries in the source; they are usually repeats but may differ in a detail not shown here. Identical values can stand only once. Like-named read-outs stand apart in the source and are kept apart here.

A word on the IC50: it is the point on the concentration scale where inhibition reaches its midpoint.

Regarding `COc1cc2cc3[n+](cc2cc1OC)CCc1c-3ccc(OC)c1OC.[Cl-]` [Compound 8b, 5,6-Dihydro-3,4,10,11-tetramethoxydibenzo[a,g]quinolizinium chloride], the “Topo II-mediated DNA cleavage (REC, Relative Effective Concentration)” value in data set [1] is recorded as 1000. Further, the “Topo I-mediated DNA cleavage (REC, Relative Effective Concentration)” value at human topoisomerase I is above 1000. Moreover, the IC50 in data set [2] (setting [4]) came to 6.4 µM; in data set [3] (setting [5]), 9 µM.
For the compound `COc1cc2cc3[n+](cc2cc1OC)CCc1c-3ccc2c1OCO2.[Cl-]` [Compound 8c, 5,6-Dihydro-3,4-methylenedioxy-10,11-dimethoxydibenzo[a,g]quinolizinium chloride], in data set [1], the “Topo II-mediated DNA cleavage (REC, Relative Effective Concentration)” value turned out to be 50. The “Topo I-mediated DNA cleavage (REC, Relative Effective Concentration)” value on human topoisomerase I amounted to 1. Moreover, on human topoisomerase I (read-out: concentration giving total cleavage of DNA in the presence of topoisomerase I), the EC (total cleavage) is 0.27 µM and 0.1 µg/mL. Also, the results for the IC50 in data set [2] (setting [4]) and in data set [3] (setting [5]) were 27 µM and 8.1 µM, respectively.
Regarding `COc1cc([C@@H]2c3cc4c(cc3[C@@H](O[C@@H]3O[C@@H]5CO[C@@H](c6cccs6)O[C@H]5[C@H](O)[C@H]3O)[C@H]3COC(=O)[C@H]23)OCO4)cc(OC)c1O` [VM-26, reference compound], in data set [1], the “Topo II-mediated DNA cleavage (REC, Relative Effective Concentration)” value was 1. The “Topo I-mediated DNA cleavage (REC, Relative Effective Concentration)” value on human topoisomerase I is above 1000. Also, the IC50 in data set [2] (setting [4]) amounted to 0.5 µM; in data set [3] (setting [5]) it was 0.3 µM.
`COc1cc2c(cc1OC)-c1cc3cc(OC)c(OC)cc3c[n+]1CC2.[Cl-]` [Compound 8a, 5,6-Dihydro-2,3,10,11-tetramethoxydibenzo[a,g]quinolizinium chloride]: the “Topo II-mediated DNA cleavage (REC, Relative Effective Concentration)” value in data set [1] is recorded as above 1000. Further, the “Topo I-mediated DNA cleavage (REC, Relative Effective Concentration)” value on human topoisomerase I turned out to be 20. For the same compound, the IC50 in data set [2] (setting [4]) stood at 18 µM; in data set [3] (setting [5]), 10 µM.
With `COc1ccc(Cc2nccc3c(OC)c(OC)ccc23)cc1OC.Cl` [Compound 9b, 5,6-Dimethoxy-1-(3,4-dimethoxybenzyl)isoquinoline hydrochloride], in data set [1], the “Topo II-mediated DNA cleavage (REC, Relative Effective Concentration)” value was determined as 1000. Further, on human topoisomerase I, the “Topo I-mediated DNA cleavage (REC, Relative Effective Concentration)” value is above 1000. The IC50 in data set [2] (setting [4]) and in data set [3] (setting [5]) was 15 µM in each case.
Consider “6,7-Dihydroxy-1,2-dimethyl-3-(3, 4-dihydroxyphenyl)isoquinolinium methosulfate [Compound 15]”, for which, in data set [1], the “Topo II-mediated DNA cleavage (REC, Relative Effective Concentration)” value was above 1000. Besides, the “Topo I-mediated DNA cleavage (REC, Relative Effective Concentration)” value at human topoisomerase I is recorded as 1000. In addition, the IC50 in data set [2] (cpt-k5 cells, 96 h) was above 122 µM; in data set [3] (rpmi 8402 cells, 96 h), 7.3 µM. In addition, the “cytotoxicity against RPMI 8402 cells (in words)” value in data set [3] is “appreciable cytotoxicity”.
For `COc1cc2c(cc1OC)-c1cc3cc(OC)c(OC)cc3c(C)[n+]1CC2` [Compound 7a, 5,6-Dihydro-8-methyl-2,3,10,11-tetramethoxydibenzo[a,g]quinolizinium acetosulfate], the “Topo II-mediated DNA cleavage (REC, Relative Effective Concentration)” value in data set [1] is reported as above 1000. At human topoisomerase I, the “Topo I-mediated DNA cleavage (REC, Relative Effective Concentration)” value turned out to be 5. Besides, the 50% inhibitory concentration (IC50) in data set [2] (setting [4]) was above 20 µM; in data set [3] (setting [5]) it was 5.9 µM.
Turning to `COc1cc2cc3c4cc(OC)c(OC)cc4cc[n+]3cc2cc1OC.[Cl-]` [Compound 10a, 2,3,10,11-Tetramethoxydibenzo[a,g]quinolizinium chloride], in data set [1], the “Topo II-mediated DNA cleavage (REC, Relative Effective Concentration)” value came out at 10. For the same compound, at human topoisomerase I, the “Topo I-mediated DNA cleavage (REC, Relative Effective Concentration)” value is given as 1000. For the same compound, the IC50 in data set [2] (setting [4]) was above 32 µM; in data set [3] (setting [5]), 13 µM.
For `COc1ccc(Cc2nccc3cc(OC)c(OC)cc23)cc1OC` [Compound 9a], in data set [1], the “Topo II-mediated DNA cleavage (REC, Relative Effective Concentration)” value is listed as 1000. Moreover, the “Topo I-mediated DNA cleavage (REC, Relative Effective Concentration)” value at human topoisomerase I is on record as above 1000. Besides, the IC50 in data set [2] (setting [4]) stood at 29 µM; in data set [3] (Homo sapiens, RPMI 8402, 96 h, 4 days of continuous drug exposure, read-out: Cytotoxicity IC50 RPMI), 24 µM.
With “6,7-Dimethoxy-1,2-dimethyl-3-(3, 4-methylenedioxyphenyl)isoquinolinium methosulfate [Compound 14b]”, in data set [1], the “Topo II-mediated DNA cleavage (REC, Relative Effective Concentration)” value came out at 1000. Moreover, the “Topo I-mediated DNA cleavage (REC, Relative Effective Concentration)” value on human topoisomerase I was 1000. Besides, the IC50 in data set [2] (cpt-k5 cells, 96 h) was 11 µM; in data set [3] (rpmi 8402 cells, 96 h), 6.7 µM. Further, the “cytotoxicity against RPMI 8402 cells (in words)” value in data set [3] is recorded as “appreciable cytotoxicity”.
As for `COc1cc2cc3c4ccc5c(c4cc[n+]3c(C)c2cc1OC)OCO5` [Compound 2c, 8-Methyl-3,4-methylenedioxy-10,11-dimethoxydibenzo[a,g]quinolizinium acetosulfate], the “Topo II-mediated DNA cleavage (REC, Relative Effective Concentration)” value in data set [1] is 10. On human topoisomerase I, the “Topo I-mediated DNA cleavage (REC, Relative Effective Concentration)” value is 10. Further, the half-inhibitory concentration (IC50) worked out at 41 µM in data set [2] (setting [4]) and 2 µM in data set [3] (setting [5]).
“6,7-Dimethoxy-1, 2-dimethyl-3-(3, 4-dimethoxyphenyl)isoquinolinium methosulfate [Compound 14a]”: the “Topo II-mediated DNA cleavage (REC, Relative Effective Concentration)” value in data set [1] is above 1000. In addition, the “Topo I-mediated DNA cleavage (REC, Relative Effective Concentration)” value on human topoisomerase I is given as above 1000. Further, the IC50 was determined as 39 µM in data set [2] (cpt-k5 cells, 96 h) and 43 µM in data set [3] (rpmi 8402 cells, 96 h).
With `COc1ccc(-c2cc3cc(OC)c(OC)cc3c(C)n2)cc1OC` [Compound 12a, 6,7-Dimethoxy-1-methyl-3-(3,4-dimethoxyphenyl)isoquinoline], the “Topo I-mediated DNA cleavage (REC, Relative Effective Concentration)” value on human topoisomerase I is listed as above 1000. Further, the half-maximal inhibitory concentration (IC50) in data set [2] (setting [4]) turned out to be 24 µM; in data set [3] (setting [5]), 13 µM.

For the origin of these results see patent EP0888346B1, “CORALYNE ANALOGS AS TOPOISOMERASE INHIBITORS” (RUTGERS, THE STATE UNIVERSITY OF NEW JERSEY, priority 1996, dated 1997).
